Data as given in ChEMBL document CHEMBL1140693, “4,5-diarylisoxazole Hsp90 chaperone inhibitors: potential therapeutic agents for the treatment of cancer” (J Med Chem, 2008).

Columns and labels:
[1] = molecular target: Heat shock protein HSP90 (Homo sapiens, UniProt P07900+P08238)
Description: Displacement of fluorescent labelled VER-00051001 from human Hsp90-beta by FP assay

[2] = tested on: HCT-116; assay: cells; conditions: Homo sapiens, HCT-116, 24 h
Description: Growth inhibition of human HCT116 cells after 24 hrs by SRB assay

[3] = Tmax in human HCT116 cells bearing NCr athymic mouse at 4 mg/kg, cassette dosing; type: ADME, organism-based, HCT-116; design: dose 4 mg/kg; conditions: in vivo
[4] = Cmax in human HCT116 cells bearing NCr athymic mouse at 4 mg/kg, cassette dosing; type: ADME, organism-based, HCT-116; design: dose 4 mg/kg; conditions: in vivo
[5] = AUClast in human HCT116 cells bearing NCr athymic mouse at 4 mg/kg, cassette dosing; type: ADME, organism-based, HCT-116; design: time 0 - last, dose 4 mg/kg; conditions: in vivo
[6] = Terminal half life in human HCT116 cells bearing NCr athymic mouse at 4 mg/kg, cassette dosing; type: ADME, organism-based, HCT-116; design: dose 4 mg/kg; conditions: in vivo, read-out: t1/2 lambda z (converted)
[7] = Apparent clearance in human HCT116 cells bearing NCr athymic mouse at 4 mg/kg, cassette dosing; type: ADME, organism-based, HCT-116; design: dose 4 mg/kg; conditions: in vivo
[8] = tested on: DU-145; assay: Growth inhibition of human DU145 cells by SRB assay; type: functional
[9] = Growth inhibition of human PC3M cells by SRB assay; type: functional; conditions: PC-3M
[10] = tested on: SK-MEL-28; assay: Growth inhibition of human SKMel28 cells by SRB assay; type: functional
[11] = tested on: SF-268; assay: Growth inhibition of human SF268 cells by SRB assay; type: functional
[12] = Growth inhibition of human U87MG cells by SRB assay; type: functional, U-87MG ATCC; conditions: U-87 MG
[13] = tested on: HCT-116; assay: Inhibition of tumor growth in human HCT116 cells bearing mouse assessed as tumor weight at 50 mg/kg, ip qd after 12 days relative to control; conditions: HCT-116, ip, 288 h
[14] = Apparent terminal-phase volume of distribution (Vz/F) in human HCT116 cells bearing NCr athymic mouse at 4 mg/kg, cassette dosing; conditions: in vivo

Row | SMILES | IC50 [1] [nM] | GI50 [2] [nM] | further results
1 | CCNC(=O)c1noc(-c2cc(Cl)c(O)cc2O)c1-c1ccc(CN2CCS(=O)(=O)CC2)cc1 | 21 | 470 | –
2 | CCNC(=O)c1noc(-c2cc(Cl)c(O)cc2O)c1-c1cccc(N2CCN(C)CC2)c1 | 343 | 2780 | –
3 | CCNC(=O)c1noc(-c2cc(-c3ccccc3)c(O)cc2O)c1-c1ccc(CN2CCOCC2)cc1 | 22 | 152 | –
4 | CCNC(=O)c1noc(-c2cc(C(C)C)c(O)cc2O)c1-c1ccc(CN2CCOCC2)cc1 [LUMINESPIB] | – | – | Tmax [3]: 1 h; Cmax [4]: 385 nM; AUC(0-t) [5]: 1.72 µM·h; half-life [6]: 9.5 h; CL/F [7]: 0.583 mL/min; GI50 [8]: 5 nM; GI50 [9]: 6 nM; GI50 [10]: 5 nM; GI50 [11]: 6 nM; GI50 [12]: 8 nM; T/C at 50 mg/kg [13]: 49.8%; Vz/F [14]: 0.478 L
5 | CCNC(=O)c1noc(-c2cc(Cl)c(O)cc2O)c1-c1cccc(N2CCOCC2)c1 | 127 | 634 | –
6 | CCNC(=O)c1noc(-c2cc(-c3ccccc3)c(O)cc2O)c1-c1ccc(CN(CC)CC)cc1 | 74 | 91 | Tmax [3]: 4 h; Cmax [4]: 252 nM; AUC(0-t) [5]: 1.25 µM·h; half-life [6]: 14.6 h; CL/F [7]: 0.583 mL/min; Vz/F [14]: 0.736 L
7 | CCNC(=O)c1noc(-c2cc(-c3ccc(F)cc3)c(O)cc2O)c1-c1ccc(CN2CCCCC2)cc1 | 36 | 35 | –
8 | CCNC(=O)c1noc(-c2cc(CC)c(O)cc2OC)c1-c1ccc(CN2CCOCC2)cc1 | 540 | 2150 | –
9 | CCNC(=O)c1noc(-c2cc(Cl)c(O)cc2O)c1-c1ccc(CN2CCOCC2)cc1 | – | 83 | –
10 | CCNC(=O)c1noc(-c2cc(CC)c(O)cc2O)c1-c1ccc(CN2CCOCC2)cc1 | 29 | 25 | –
11 | CCNC(=O)c1noc(-c2cc(Cl)c(O)cc2O)c1-c1ccc(CN2CCN(C)CC2)cc1 | 39 | 125 | –
12 | CC(=O)c1ccc(CNC(=O)c2c[nH]nc2-c2cc(Cl)c(O)cc2O)cc1 | 258 | 11600 | –
13 | CCNC(=O)c1[nH]nc(-c2cc(Cl)c(O)cc2O)c1-c1cccc(CN2CCN(C(C)=O)CC2)c1 | 1290 | 32700 | –
14 | CCNC(=O)c1[nH]nc(-c2cc(Cl)c(O)cc2O)c1-c1cccc(CNCCN2CCCCC2)c1 | 1000 | 25100 | –
15 | CCNC(=O)c1[nH]nc(-c2cc(Cl)c(O)cc2O)c1-c1cccc(CNCc2ccccc2C(F)(F)F)c1 | 231 | 3110 | –
16 | CCNC(=O)c1[nH]nc(-c2cc(Cl)c(O)cc2O)c1-c1ccc(CNCCS(C)(=O)=O)cc1 | 35 | 2160 | –
17 | CCNC(=O)c1[nH]nc(-c2cc(Cl)c(O)cc2O)c1-c1cccc(CN(C)CCO)c1 | 914 | 9240 | –
18 | CCNC(=O)c1noc(-c2cc(CCc3ccccc3)c(O)cc2O)c1-c1ccc(CN2CCOCC2)cc1 | 32 | 29 | –
19 | CCc1cc(-c2[nH]nc(C)c2-c2ccc3c(c2)OCCO3)c(O)cc1O | – | 5800 | –
20 | CCNC(=O)c1noc(-c2cc(Cl)c(O)cc2O)c1-c1ccc(CN2CCCCC2)cc1 | 19 | 61 | –
21 | CCNC(=O)c1[nH]nc(-c2cc(Cl)c(O)cc2O)c1-c1ccc(CNC(=O)C[C@@H]2CCCN2)cc1 | 57 | 275 | –
22 | CCNC(=O)c1noc(-c2cc(-c3ccccc3F)c(O)cc2O)c1-c1ccc(CN2CCOCC2)cc1 | 39 | 87 | –
23 | CCNC(=O)c1[nH]nc(-c2cc(Cl)c(O)cc2O)c1-c1ccc(CN(CC)CC)cc1 | 146 | 315 | –
24 | CCNC(=O)c1noc(-c2cc(-c3ccccc3C)c(O)cc2O)c1-c1ccc(CN2CCCCC2)cc1 | 14 | 114 | –
25 | CCNC(=O)c1noc(-c2cc(Cl)c(O)cc2O)c1-c1ccc(CN2CCC(O)CC2)cc1 | 28 | 1290 | –
26 | CCNC(=O)c1noc(-c2cc(C(C)(C)C)c(O)cc2O)c1-c1ccc(CN2CCOCC2)cc1 | 8 | 70 | Tmax [3]: 1 h; Cmax [4]: 203 nM; AUC(0-t) [5]: 0.751 µM·h; half-life [6]: 5 h; CL/F [7]: 1.85 mL/min; Vz/F [14]: 0.809 L

Row | SMILES | IC50 [1] [nM] | GI50 [2] [nM] | further results
27 | CCNC(=O)c1[nH]nc(-c2cc(Cl)c(O)cc2O)c1-c1ccc(CN2CCS(=O)(=O)CC2)cc1 | 27 | 826 | –
28 | CCNC(=O)c1noc(-c2cc(C(C)C)c(O)cc2O)c1-c1ccc(CN(CC)CC)cc1 | 6 | 6 | –
29 | CCNC(=O)c1[nH]nc(-c2cc(Cl)c(O)cc2O)c1-c1ccc(CN2CCOCC2)cc1 | 37 | 290 | –
30 | CCNC(=O)c1[nH]nc(-c2cc(Cl)c(O)cc2O)c1-c1cccc(CNCCOC)c1 | 728 | 12900 | –
31 | CCNC(=O)c1noc(-c2cc(Cl)c(O)cc2O)c1-c1ccc(CN2CCCC2)cc1 | 39 | 118 | –
32 | C=CCNC1=C2C[C@@H](C)C[C@H](OC)[C@H](O)[C@@H](C)/C=C(\C)[C@H](OC(N)=O)[C@@H](OC)/C=C\C=C(/C)C(=O)NC(=CC1=O)C2=O [TANESPIMYCIN] | – | 160 | –
33 | CCNC(=O)c1noc(-c2cc(Cl)c(O)cc2O)c1-c1ccc(OC)cc1 | – | 120 | Tmax [3]: 1 h; Cmax [4]: 482 nM; AUC(0-t) [5]: 1.73 µM·h; half-life [6]: 3.9 h; CL/F [7]: 1.27 mL/min; GI50 [8]: 230 nM; GI50 [9]: 220 nM; GI50 [10]: 45 nM; GI50 [11]: 34 nM; GI50 [12]: 28 nM; Vz/F [14]: 0.432 L
34 | CCNC(=O)c1[nH]nc(-c2cc(Cl)c(O)cc2O)c1-c1ccc(CN(CCO)CCO)cc1 | 142 | 7800 | –
35 | CCNC(=O)c1noc(-c2cc(CC)c(OC)cc2O)c1-c1ccc(CN2CCOCC2)cc1 | 15 | 80 | –
36 | CCNC(=O)c1noc(-c2cc(Cl)c(O)cc2O)c1-c1ccc(CNCCS(C)(=O)=O)cc1 | 14 | 1980 | –
37 | CCNC(=O)c1noc(-c2cc(CCc3cccc(F)c3)c(O)cc2O)c1-c1ccc(CN2CCOCC2)cc1 | 26 | 58 | –
38 | Oc1cc(O)c(-c2n[nH]cc2N2CCN(Cc3ccccc3)CC2)cc1Cl | 600 | 6500 | –
39 | CCNC(=O)c1[nH]nc(-c2cc(Cl)c(O)cc2O)c1-c1cccc(CN2CCOCC2)c1 | 222 | 2690 | –
40 | CCNC(=O)c1[nH]nc(-c2cc(Cl)c(O)cc2O)c1-c1cccc(CN2CCC(CO)CC2)c1 | 2630 | > 80000 | –
41 | CCNC(=O)c1[nH]nc(-c2cc(Cl)c(O)cc2O)c1-c1cccc(CNCCN2CCOCC2)c1 | 431 | 12500 | –
42 | CCNC(=O)c1n[nH]c(-c2cc(Cl)c(O)cc2O)c1-c1ccc(OC)cc1 | – | – | GI50 [8]: 1200 nM; GI50 [9]: 2200 nM; GI50 [10]: 480 nM; GI50 [11]: 320 nM; GI50 [12]: 1200 nM
43 | CCNC(=O)c1noc(-c2cc(-c3ccccc3)c(O)cc2O)c1-c1ccc(CN2CCCCC2)cc1 | 14 | 86 | Tmax [3]: 1 h; Cmax [4]: 237 nM; AUC(0-t) [5]: 0.995 µM·h; half-life [6]: 7.3 h; CL/F [7]: 1.03 mL/min; Vz/F [14]: 0.652 L
44 | CCNC(=O)c1noc(-c2cc(Cl)c(O)cc2O)c1-c1ccc(CN(CC)CC)cc1 | 64 | 56 | –
45 | CCNC(=O)c1noc(-c2cc(C(C)(C)C)c(O)cc2O)c1-c1ccc(CN2CCCCC2)cc1 | 11 | 65 | –
46 | CCNC(=O)c1noc(-c2cc(CCc3ccc(F)cc3)c(O)cc2O)c1-c1ccc(CN2CCCCC2)cc1 | 26 | 29 | –
47 | CCNC(=O)c1noc(-c2cc(CCc3ccc(F)cc3)c(O)cc2O)c1-c1ccc(CN2CCOCC2)cc1 | 20 | 39 | –
48 | CCNC(=O)c1[nH]nc(-c2cc(Cl)c(O)cc2O)c1-c1ccc(CNC(=O)C2CCCN(C)C2)cc1 (configuration not stated) | 115 | 3470 | –
49 | CCNC(=O)c1[nH]nc(-c2cc(Cl)c(O)cc2O)c1-c1cccc(CN2CCC[C@H]2CO)c1 | 1660 | 11400 | –
50 | CCNC(=O)c1noc(-c2cc(CC)c(O)cc2O)c1-c1ccc(CN(CC)CC)cc1 | 13 | 41 | –
51 | CCNC(=O)c1noc(-c2cc(CC)c(OC)cc2OC)c1-c1ccc(CN2CCOCC2)cc1 | 1560 | 32000 | –
52 | CCNC(=O)c1noc(-c2cc(Cl)c(O)cc2O)c1-c1ccc(CN(C)C)cc1 | 18 | 69 | –
